Results on one compound are retold here after patent US20250352512A2, “C4-S[…] DERIVATIVES AND METHODS OF USING” (priority 2022, published 2025).

For orientation: IC50 means the concentration needed to halve the response being measured. A low value points to greater potency. As usually defined, the EC50 is the concentration that produces a half-maximal response.

One assay has as its target HTR2B (5-HT2B) (Homo sapiens, UniProt P41595). The experiment in a line: cell-based.
The target of the next assay is OPRD1 (Homo sapiens, UniProt P41143). The experiment in a line: cell-based.
The target in a further assay is AVPR1A (Homo sapiens, UniProt P37288). The assay is described as follows: cell-based.
Assay [1] has as its target T1, CNR1 (Homo sapiens, UniProt P21554). The assay is described as follows: cell-based.
Another assay deals with T2, CHRM1 (Homo sapiens, UniProt P11229).
T2 sequence (P11229 1-460): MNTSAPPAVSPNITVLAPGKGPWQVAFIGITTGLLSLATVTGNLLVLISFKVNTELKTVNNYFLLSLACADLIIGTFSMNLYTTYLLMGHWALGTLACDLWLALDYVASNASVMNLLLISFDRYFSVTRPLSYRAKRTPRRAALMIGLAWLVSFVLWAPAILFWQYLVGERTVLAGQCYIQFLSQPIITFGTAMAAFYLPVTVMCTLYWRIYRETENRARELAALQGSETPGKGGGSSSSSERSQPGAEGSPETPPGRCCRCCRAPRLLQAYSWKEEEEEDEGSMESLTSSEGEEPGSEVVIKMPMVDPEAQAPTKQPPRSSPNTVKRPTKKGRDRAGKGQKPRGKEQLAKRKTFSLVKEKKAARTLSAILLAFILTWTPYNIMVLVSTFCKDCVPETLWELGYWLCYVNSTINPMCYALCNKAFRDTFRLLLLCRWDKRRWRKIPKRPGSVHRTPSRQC
The assay is described as follows: cell-based.

Another assay addresses NMDAR (Homo sapiens, UniProt Q05586+Q13224). The assay is described as follows: cell-based.
The next assay deals with T3, MAO-A (Homo sapiens, UniProt P21397).
T3 construct: purchased Sigma
T3 sequence (P21397 1-527): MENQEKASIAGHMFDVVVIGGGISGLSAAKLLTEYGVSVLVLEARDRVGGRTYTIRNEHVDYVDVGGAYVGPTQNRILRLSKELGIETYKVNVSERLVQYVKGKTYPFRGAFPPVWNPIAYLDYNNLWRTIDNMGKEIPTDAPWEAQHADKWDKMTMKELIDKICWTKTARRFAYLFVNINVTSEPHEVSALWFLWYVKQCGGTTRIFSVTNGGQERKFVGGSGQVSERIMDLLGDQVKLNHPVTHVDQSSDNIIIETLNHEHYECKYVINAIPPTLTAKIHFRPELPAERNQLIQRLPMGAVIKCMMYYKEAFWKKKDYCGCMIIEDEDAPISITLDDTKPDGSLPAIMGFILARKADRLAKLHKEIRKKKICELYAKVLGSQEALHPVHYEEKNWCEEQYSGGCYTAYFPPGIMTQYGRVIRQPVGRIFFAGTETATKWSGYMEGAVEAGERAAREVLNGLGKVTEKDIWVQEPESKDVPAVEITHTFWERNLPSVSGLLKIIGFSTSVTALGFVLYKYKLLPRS
The experiment in a line: biochemical.

For another assay, the target named is DAT (Homo sapiens, UniProt Q01959). The assay is described as follows: cell-based.
Another assay deals with DRD1 (Homo sapiens, UniProt P21728). The assay is described as follows: cell-based.
The target of the next assay is T4, 5-HT1A receptor (Homo sapiens, UniProt P08908).
T4 construct: host or cells: CHO-K1
T4 sequence (P08908 1-422): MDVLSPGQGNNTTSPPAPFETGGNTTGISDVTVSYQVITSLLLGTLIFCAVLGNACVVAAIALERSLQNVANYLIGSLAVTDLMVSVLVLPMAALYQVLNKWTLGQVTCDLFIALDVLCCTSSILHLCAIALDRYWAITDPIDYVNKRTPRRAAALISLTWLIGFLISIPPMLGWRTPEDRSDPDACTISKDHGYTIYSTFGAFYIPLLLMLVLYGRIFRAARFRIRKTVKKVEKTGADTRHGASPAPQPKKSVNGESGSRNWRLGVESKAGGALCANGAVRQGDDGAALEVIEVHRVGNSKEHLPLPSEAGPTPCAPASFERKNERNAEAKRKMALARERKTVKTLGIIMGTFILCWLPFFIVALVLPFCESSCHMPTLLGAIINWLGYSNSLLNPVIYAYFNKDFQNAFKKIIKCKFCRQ
It is filed as cell-based. The following applies: comparison of +5-HT1A with -5-HT1A cultures, 4 mM forskolin.

The target of another assay is T5, ADRA2A (Homo sapiens, UniProt P08913).
T5 sequence (P08913 1-465): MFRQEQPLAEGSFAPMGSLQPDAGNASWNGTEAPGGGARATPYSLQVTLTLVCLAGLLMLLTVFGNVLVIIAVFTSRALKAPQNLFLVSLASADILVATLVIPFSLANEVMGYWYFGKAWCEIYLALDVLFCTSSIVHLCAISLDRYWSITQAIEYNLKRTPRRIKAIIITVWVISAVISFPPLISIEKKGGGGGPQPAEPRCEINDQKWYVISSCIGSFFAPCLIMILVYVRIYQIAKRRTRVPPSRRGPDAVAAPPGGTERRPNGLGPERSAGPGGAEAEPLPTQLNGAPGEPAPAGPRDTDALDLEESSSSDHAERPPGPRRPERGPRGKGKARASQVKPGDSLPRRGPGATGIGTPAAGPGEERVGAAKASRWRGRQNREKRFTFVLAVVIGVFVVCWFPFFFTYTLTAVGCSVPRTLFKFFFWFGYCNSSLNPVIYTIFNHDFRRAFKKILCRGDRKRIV
The experiment in a line: cell-based.

For assay [2], the target named is T6, 5-HT2A receptor (5-HT2AR) (Mus musculus, UniProt P35363).
T6 construct: tissue Charles River; host or cells: living C57BL/6-Elite mice (neuronal receptor)
The assay is described as follows: Drug-induced Head Twitch Response (HTR) in mice. The following applies: C57BL/6-Elite mice, i.p. 1 mg/kg, 15-to-30-minute window following administration. It is filed as in vivo.

The target of the next assay is T7, HTR1A (5-HT1A) (Homo sapiens, UniProt P08908).
T7 sequence (P08908 1-422): T4 sequence (P08908 1-422)
The assay is described as follows: cell-based.

For a further assay, the target named is HTR1B (5-HTR1B) (Homo sapiens, UniProt P28222). The assay is described as follows: cell-based.
For assay [3], the target named is T1, CNR1. The experiment in a line: cell-based. This is another data set of the same source.

Some results are limits rather than exact numbers.

T1 sequence (P21554 whole entry): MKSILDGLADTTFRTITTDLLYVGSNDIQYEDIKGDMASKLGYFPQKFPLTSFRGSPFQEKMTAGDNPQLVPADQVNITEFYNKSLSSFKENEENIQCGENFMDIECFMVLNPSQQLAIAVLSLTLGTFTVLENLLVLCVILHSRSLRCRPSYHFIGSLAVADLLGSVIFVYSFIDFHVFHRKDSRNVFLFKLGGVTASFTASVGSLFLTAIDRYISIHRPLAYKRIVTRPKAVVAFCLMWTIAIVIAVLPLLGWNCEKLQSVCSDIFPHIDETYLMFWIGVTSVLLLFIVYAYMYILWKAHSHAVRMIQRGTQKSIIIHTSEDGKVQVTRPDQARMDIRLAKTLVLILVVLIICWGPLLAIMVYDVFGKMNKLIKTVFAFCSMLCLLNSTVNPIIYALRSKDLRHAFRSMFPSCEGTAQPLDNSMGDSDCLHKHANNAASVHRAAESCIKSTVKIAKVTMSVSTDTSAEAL
Sequence of HTR1B (5-HTR1B) (P28222 whole entry): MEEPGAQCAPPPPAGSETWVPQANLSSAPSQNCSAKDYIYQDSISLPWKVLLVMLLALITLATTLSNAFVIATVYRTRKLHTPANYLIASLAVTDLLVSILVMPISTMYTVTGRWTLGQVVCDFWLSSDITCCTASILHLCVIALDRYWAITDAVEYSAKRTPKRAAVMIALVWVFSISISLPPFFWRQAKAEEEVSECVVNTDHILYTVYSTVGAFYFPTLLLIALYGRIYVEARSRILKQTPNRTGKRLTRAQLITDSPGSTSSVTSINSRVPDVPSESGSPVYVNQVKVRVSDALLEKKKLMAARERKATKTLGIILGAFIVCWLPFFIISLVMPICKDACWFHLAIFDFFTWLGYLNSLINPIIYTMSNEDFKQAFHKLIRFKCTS
Sequence of HTR2B (5-HT2B) (P41595 whole entry): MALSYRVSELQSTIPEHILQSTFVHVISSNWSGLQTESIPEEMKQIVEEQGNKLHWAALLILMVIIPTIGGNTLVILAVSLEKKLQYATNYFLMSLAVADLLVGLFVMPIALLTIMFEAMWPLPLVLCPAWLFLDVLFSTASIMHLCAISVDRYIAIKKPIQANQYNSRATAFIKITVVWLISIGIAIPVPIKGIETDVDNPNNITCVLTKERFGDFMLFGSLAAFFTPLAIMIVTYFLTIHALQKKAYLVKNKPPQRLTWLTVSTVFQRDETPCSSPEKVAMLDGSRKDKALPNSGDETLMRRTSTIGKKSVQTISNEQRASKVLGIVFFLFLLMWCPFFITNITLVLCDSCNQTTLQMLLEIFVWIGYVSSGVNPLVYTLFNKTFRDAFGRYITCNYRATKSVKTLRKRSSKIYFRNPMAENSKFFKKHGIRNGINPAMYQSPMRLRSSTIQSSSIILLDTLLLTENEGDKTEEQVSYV
Sequence of OPRD1 (P41143 whole entry): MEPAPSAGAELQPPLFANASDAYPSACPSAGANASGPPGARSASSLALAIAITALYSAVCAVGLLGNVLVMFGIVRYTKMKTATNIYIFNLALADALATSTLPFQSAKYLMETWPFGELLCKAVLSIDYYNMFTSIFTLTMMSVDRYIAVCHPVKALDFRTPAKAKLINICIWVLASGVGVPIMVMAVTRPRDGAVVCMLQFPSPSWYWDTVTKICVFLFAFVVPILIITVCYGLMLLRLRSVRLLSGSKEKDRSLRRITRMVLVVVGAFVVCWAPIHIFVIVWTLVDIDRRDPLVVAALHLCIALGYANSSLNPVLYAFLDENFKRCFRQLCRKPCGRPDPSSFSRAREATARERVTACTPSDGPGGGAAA
Sequence of NMDAR (Q13224 27-1484, other chains not shown): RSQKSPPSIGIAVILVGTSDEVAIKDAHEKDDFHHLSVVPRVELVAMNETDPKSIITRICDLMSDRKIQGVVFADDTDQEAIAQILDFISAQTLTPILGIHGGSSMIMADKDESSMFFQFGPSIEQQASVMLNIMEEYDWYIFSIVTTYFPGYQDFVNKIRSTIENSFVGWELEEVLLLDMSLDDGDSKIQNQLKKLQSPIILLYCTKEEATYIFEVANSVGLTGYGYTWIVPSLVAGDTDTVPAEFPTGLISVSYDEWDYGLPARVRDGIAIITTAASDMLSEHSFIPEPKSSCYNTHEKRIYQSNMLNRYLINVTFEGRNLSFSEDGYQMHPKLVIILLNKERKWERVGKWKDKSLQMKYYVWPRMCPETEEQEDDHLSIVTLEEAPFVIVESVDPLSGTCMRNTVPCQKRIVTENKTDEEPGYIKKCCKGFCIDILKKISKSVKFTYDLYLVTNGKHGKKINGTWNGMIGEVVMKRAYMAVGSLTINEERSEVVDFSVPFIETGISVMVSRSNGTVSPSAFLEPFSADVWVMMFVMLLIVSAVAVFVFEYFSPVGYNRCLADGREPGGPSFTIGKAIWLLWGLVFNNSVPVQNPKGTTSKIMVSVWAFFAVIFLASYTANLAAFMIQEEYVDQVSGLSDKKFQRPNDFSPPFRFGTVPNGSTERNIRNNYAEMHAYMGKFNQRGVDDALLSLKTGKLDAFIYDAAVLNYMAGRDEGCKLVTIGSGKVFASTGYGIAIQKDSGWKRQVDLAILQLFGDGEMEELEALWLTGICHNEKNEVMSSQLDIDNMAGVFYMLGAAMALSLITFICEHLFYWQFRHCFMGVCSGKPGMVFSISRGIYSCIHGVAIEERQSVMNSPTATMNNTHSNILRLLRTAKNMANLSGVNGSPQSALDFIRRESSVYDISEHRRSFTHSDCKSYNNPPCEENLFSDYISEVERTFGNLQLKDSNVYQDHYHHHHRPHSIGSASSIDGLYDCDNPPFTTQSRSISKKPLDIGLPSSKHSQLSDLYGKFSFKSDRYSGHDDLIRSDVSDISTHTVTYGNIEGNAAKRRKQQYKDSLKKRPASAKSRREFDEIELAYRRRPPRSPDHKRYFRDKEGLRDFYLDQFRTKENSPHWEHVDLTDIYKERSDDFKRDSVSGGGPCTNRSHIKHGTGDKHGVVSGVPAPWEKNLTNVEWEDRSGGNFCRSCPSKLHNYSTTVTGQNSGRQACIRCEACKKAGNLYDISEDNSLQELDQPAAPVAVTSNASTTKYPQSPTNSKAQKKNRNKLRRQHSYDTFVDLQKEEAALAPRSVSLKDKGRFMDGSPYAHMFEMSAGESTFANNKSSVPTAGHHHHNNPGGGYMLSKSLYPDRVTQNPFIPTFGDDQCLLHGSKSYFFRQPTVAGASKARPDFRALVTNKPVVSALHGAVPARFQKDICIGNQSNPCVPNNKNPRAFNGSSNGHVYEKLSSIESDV
T6 sequence (P35363 whole entry): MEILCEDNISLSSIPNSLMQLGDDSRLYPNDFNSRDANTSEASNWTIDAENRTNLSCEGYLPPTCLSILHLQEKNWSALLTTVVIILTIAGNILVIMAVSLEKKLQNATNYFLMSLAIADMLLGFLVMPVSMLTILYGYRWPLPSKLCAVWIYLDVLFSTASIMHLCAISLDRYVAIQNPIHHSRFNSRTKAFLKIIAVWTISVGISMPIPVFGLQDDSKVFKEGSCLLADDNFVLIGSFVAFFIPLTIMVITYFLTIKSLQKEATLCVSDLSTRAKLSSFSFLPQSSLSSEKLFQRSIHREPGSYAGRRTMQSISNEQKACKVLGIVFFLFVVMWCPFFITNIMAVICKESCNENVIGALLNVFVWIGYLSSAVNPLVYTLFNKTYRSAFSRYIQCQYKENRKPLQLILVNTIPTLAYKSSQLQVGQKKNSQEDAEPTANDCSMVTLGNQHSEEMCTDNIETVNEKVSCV
Sequence of AVPR1A (P37288 whole entry): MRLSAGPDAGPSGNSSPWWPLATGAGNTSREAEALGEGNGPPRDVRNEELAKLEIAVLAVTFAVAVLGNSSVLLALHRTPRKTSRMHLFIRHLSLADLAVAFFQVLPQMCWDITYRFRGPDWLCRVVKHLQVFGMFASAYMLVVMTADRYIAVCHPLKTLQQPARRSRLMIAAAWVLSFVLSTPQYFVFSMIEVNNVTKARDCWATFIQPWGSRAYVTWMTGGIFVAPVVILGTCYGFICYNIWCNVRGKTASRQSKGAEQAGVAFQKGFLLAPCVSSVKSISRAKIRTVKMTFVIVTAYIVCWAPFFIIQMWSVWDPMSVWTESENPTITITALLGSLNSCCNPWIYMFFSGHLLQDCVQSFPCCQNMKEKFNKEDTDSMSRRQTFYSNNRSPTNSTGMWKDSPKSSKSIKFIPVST
Sequence of DAT (Q01959 whole entry): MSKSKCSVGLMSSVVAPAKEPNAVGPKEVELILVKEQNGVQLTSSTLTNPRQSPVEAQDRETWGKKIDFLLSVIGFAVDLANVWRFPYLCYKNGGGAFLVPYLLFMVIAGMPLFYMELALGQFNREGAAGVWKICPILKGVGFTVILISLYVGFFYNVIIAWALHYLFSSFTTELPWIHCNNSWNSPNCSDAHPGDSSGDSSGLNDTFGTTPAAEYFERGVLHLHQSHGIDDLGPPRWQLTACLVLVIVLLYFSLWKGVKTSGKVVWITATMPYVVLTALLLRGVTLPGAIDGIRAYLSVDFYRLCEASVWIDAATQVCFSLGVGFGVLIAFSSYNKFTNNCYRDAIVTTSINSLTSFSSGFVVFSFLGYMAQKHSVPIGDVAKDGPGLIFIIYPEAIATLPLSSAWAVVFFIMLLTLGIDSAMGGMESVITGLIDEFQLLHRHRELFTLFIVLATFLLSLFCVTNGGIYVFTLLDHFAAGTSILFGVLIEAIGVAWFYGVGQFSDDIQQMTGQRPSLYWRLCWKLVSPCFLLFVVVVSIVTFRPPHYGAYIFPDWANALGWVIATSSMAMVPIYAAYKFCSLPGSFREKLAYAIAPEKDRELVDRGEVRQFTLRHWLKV

On to `CN(C)CCc1c[nH]c2cccc(OP(=O)(Oc3ccccc3)Oc3ccccc3)c12` [F(I)], for which the IC50 against HTR2B (5-HT2B) is 0.127 µM; on OPRD1, 57.1 µM; on AVPR1A, greater than 100 µM; against CNR1 [1] it was 17.2 µM; against NMDAR it was greater than 100 µM; on MAO-A it was 50.9 µM. Further, the IC50 against DAT is greater than 100 µM; on DRD1 it was 6.98 µM. Also, the EC50 at CHRM1 is greater than 100 µM; on ADRA2A, greater than 100 µM; on HTR1A (5-HT1A), 6.36 µM; on HTR1B (5-HTR1B), 0.0549 µM; at CNR1 [3] it was greater than 100 µM. Besides, the 5-HT1A receptor modulation entry on 5-HT1A receptor is reported as “reveals receptor modulation”. Also, the “incidences of Head Twitch Response (HTR) relative to vehicle” value in [2] is recorded as “Elevated incidences of HTR”.
